Data from the NIST ThermoML archive (doi:10.1021/je050402s).
Numbers after ± are expanded uncertainties.

What was measured:
[1] = 100.5 kPa, Liquid
[2] = xn = mol fraction of the nth substance listed; conditions: 100.5 kPa, Liquid, x2 = 0
[3] = 288.15 K, Capillary tube (Ostwald / Ubbelohde) method
[4] = 298.15 K, Capillary tube (Ostwald / Ubbelohde) method
[5] = 308.15 K, Capillary tube (Ostwald / Ubbelohde) method
[6] = 318.15 K, Capillary tube (Ostwald / Ubbelohde) method

| Compound | mass density ([1]; 288.15 K) | viscosity [1, 3] | mass density ([1]; 298.15 K) | viscosity [1, 4] | mass density ([1]; 308.15 K) | viscosity [1, 5] | mass density ([1]; 318.15 K) | viscosity [1, 6] | viscosity [2, 3] | mass density ([2]; 288.15 K) | viscosity [2, 4] | mass density ([2]; 298.15 K) | viscosity [2, 5] | mass density ([2]; 308.15 K) | viscosity [2, 6] | mass density ([2]; 318.15 K) | other results |
| --- | --- | --- | --- | --- | --- | --- | --- | --- | --- | --- | --- | --- | --- | --- | --- | --- | --- |
| CCOC(=O)CC(C)=O [ethyl 3-oxobutanoate] | 1033.92 ± 0.45 kg/m3 | 1.902 ± 0.017 mPa·s | 1023.45 ± 0.44 kg/m3 | 1.581 ± 0.016 mPa·s | 1013 ± 0.43 kg/m3 | 1.344 ± 0.015 mPa·s | 1002.54 ± 0.43 kg/m3 | 1.144 ± 0.014 mPa·s |  |  |  |  |  |  |  |  |  |
| CCOC(=O)c1ccccc1O [ethyl 2-hydroxybenzoate] | 1134.72 ± 0.41 kg/m3 |  | 1125 ± 0.39 kg/m3 |  | 1115.29 ± 0.38 kg/m3 |  | 1105.6 ± 0.37 kg/m3 |  |  |  |  |  |  |  |  |  | viscosity ([1]; 288.15 K): 3.694 ± 0.041 mPa·s; viscosity ([1]; 298.15 K): 2.831 ± 0.032 mPa·s; viscosity ([1]; 308.15 K): 2.253 ± 0.027 mPa·s; viscosity ([1]; 318.15 K): 1.842 ± 0.023 mPa·s |
| CCO [ethanol] + CCC(=O)OCc1ccccc1 |  |  |  |  |  |  |  |  | 1.337 ± 0.014 mPa·s | 793.6 ± 0.45 kg/m3 | 1.105 ± 0.014 mPa·s | 785 ± 0.46 kg/m3 | 0.921 ± 0.013 mPa·s | 776.31 ± 0.48 kg/m3 | 0.771 ± 0.013 mPa·s | 767.44 ± 0.49 kg/m3 |  |
| CCOC(=O)CC(C)C [ethyl 3-methylbutanoate] | 869.66 ± 0.55 kg/m3 | 0.853 ± 0.014 mPa·s | 859.78 ± 0.55 kg/m3 | 0.739 ± 0.013 mPa·s | 849.83 ± 0.56 kg/m3 | 0.642 ± 0.013 mPa·s | 839.81 ± 0.57 kg/m3 | 0.566 ± 0.013 mPa·s |  |  |  |  |  |  |  |  |  |
| CC(=O)OCc1ccccc1 [benzyl ethanoate] | 1060.11 ± 0.31 kg/m3 | 2.53 ± 0.018 mPa·s | 1050.75 ± 0.29 kg/m3 | 2.056 ± 0.017 mPa·s | 1041.39 ± 0.28 kg/m3 | 1.703 ± 0.015 mPa·s | 1032.03 ± 0.27 kg/m3 | 1.432 ± 0.015 mPa·s |  |  |  |  |  |  |  |  |  |
| CCO [ethanol] + CCOC(=O)CC(C)C |  |  |  |  |  |  |  |  | 1.337 ± 0.014 mPa·s | 793.6 ± 0.45 kg/m3 | 1.105 ± 0.014 mPa·s | 785 ± 0.46 kg/m3 | 0.921 ± 0.013 mPa·s | 776.31 ± 0.48 kg/m3 | 0.771 ± 0.013 mPa·s | 767.44 ± 0.49 kg/m3 |  |
| CCO [ethanol] + CCOC(=O)c1ccccc1O |  |  |  |  |  |  |  |  |  | 793.6 ± 0.45 kg/m3 |  | 785 ± 0.46 kg/m3 |  | 776.31 ± 0.48 kg/m3 |  | 767.44 ± 0.49 kg/m3 | viscosity ([2]; 288.15 K): 1.337 ± 0.019 mPa·s; viscosity ([2]; 298.15 K): 1.105 ± 0.017 mPa·s; viscosity ([2]; 308.15 K): 0.921 ± 0.016 mPa·s; viscosity ([2]; 318.15 K): 0.771 ± 0.015 mPa·s |
| CCO [ethanol] | 793.6 ± 0.45 kg/m3 | 1.337 ± 0.014 mPa·s | 785 ± 0.46 kg/m3 | 1.105 ± 0.014 mPa·s | 776.31 ± 0.48 kg/m3 | 0.921 ± 0.013 mPa·s | 767.44 ± 0.49 kg/m3 | 0.771 ± 0.013 mPa·s |  |  |  |  |  |  |  |  |  |
| COC(=O)c1ccccc1 [methyl benzoate] | 1093.23 ± 0.52 kg/m3 | 2.297 ± 0.019 mPa·s | 1083.92 ± 0.51 kg/m3 | 1.851 ± 0.017 mPa·s | 1074.34 ± 0.5 kg/m3 | 1.531 ± 0.016 mPa·s | 1064.62 ± 0.49 kg/m3 | 1.297 ± 0.015 mPa·s |  |  |  |  |  |  |  |  |  |
| CCO [ethanol] + CCOC(=O)CC(C)=O |  |  |  |  |  |  |  |  | 1.337 ± 0.014 mPa·s | 793.6 ± 0.45 kg/m3 | 1.105 ± 0.014 mPa·s | 785 ± 0.46 kg/m3 | 0.921 ± 0.013 mPa·s | 776.31 ± 0.48 kg/m3 | 0.771 ± 0.013 mPa·s | 767.44 ± 0.49 kg/m3 |  |
| CCC(=O)OCc1ccccc1 [benzyl propanoate] | 1036.86 ± 0.36 kg/m3 | 2.55 ± 0.019 mPa·s | 1027.6 ± 0.35 kg/m3 | 2.123 ± 0.018 mPa·s | 1018.38 ± 0.34 kg/m3 | 1.787 ± 0.016 mPa·s | 1009.15 ± 0.34 kg/m3 | 1.515 ± 0.015 mPa·s |  |  |  |  |  |  |  |  |  |
| CCO [ethanol] + CC(=O)OCc1ccccc1 |  |  |  |  |  |  |  |  | 1.337 ± 0.014 mPa·s | 793.6 ± 0.45 kg/m3 | 1.105 ± 0.014 mPa·s | 785 ± 0.46 kg/m3 | 0.921 ± 0.013 mPa·s | 776.31 ± 0.48 kg/m3 | 0.771 ± 0.013 mPa·s | 767.44 ± 0.49 kg/m3 |  |
| CCO [ethanol] + COC(=O)c1ccccc1 |  |  |  |  |  |  |  |  | 1.337 ± 0.014 mPa·s | 793.6 ± 0.45 kg/m3 | 1.105 ± 0.014 mPa·s | 785 ± 0.46 kg/m3 | 0.921 ± 0.013 mPa·s | 776.31 ± 0.48 kg/m3 | 0.771 ± 0.013 mPa·s | 767.44 ± 0.49 kg/m3 |  |
